# Data from PMC7937321 (Genes and Environment, 2021).
# Like-named read-outs stand apart in the source and are kept apart here.
# Experiments:
# [1] = system: human lymphoblastoid TK6 cells, thymidine kinase gene
# Protocol: (§1) In principle, this collaborative study conducted the treatment of test substances, the dose finding, and the main test of TK6 assays, according to the OECD Guideline TG490 [17]. […] Briefly, test substances were dissolved in an appropriate solvent (DMSO or ethanol) and then serially diluted to prepare final concentrations. […] The 4 h and 24 h treatments were conducted by shaking and static exposures, respectively. After treatment with test substances, cells were centrifuged (1000 rpm, 5 min), supernatants were removed, and cells were washed with a serum-free medium or Hank’s Balanced Salt Solution. After centrifugation (1000 rpm, 5 min) to remove the supernatant, cells (2 × 10^7 cells) were dispersed in an RPMI medium containing 10% serum, and cell concentration was measured. Treated cells were cultured at 37 °C with 5% CO2 condition and used for TK6 assays. At that time, to calculate the cloning efficiency (CE) (Eq. 1), the cells were cultured in a 96-well microplate at a concentration of about 1.6 cells/well for 2 weeks.
# (§2) The TK6 assay is conducted between 20 and 10% RS0 as a maximum dose if cytotoxicity is observed. If no precipitate or limiting cytotoxicity was observed, the maximum dose was the lowest concentration among 10 mM, 2 mg/mL, or 2 μL/mL of the test substance. When the main TK6 assay was difficult to conduct under the condition of RS0 values from 20 to 10%, the test was conducted between 20 and 10% relative total growth (RTG), described later, as a maximum dose.
# (§3) On the third day of culture, CE3 plates for determining plating efficiency and mutant frequency (MF) plates for mutation detection were prepared. CE3 plates were seeded in 96-well microplates at a concentration of about 1.6 cells/well. The MF plates were seeded in 96-well microplates at 40,000 cells/well in the presence of 3 μg/mL of trifluorothymidine (Sigma Aldrich).
# (§4) Mutant colonies in MF plates were calculated using Eq. 7 using the Poisson distribution. EW was the number of wells without colonies, and TW was the total number of wells. N was the average number of cells per well (N = 40,000 in this study). The data were statistically analyzed by Omori’s method, a modified Dunnett’s procedure for identifying clear negatives, a Simpson–Margolin procedure for detecting downturn data, and a trend test to evaluate the dose dependency [42, 43]. The acceptability criterion for the test was that the MF value of the positive control group of each laboratory was increased with statistical significance compared with that of the concurrent negative control group.
# [2] = system: L5178Y mouse lymphoma cells; conditions: cited from earlier work; for MLA (TK gene locus), With S9 / MLA (TK gene locus), Without S9: [46]-[53], Table 3
# TK6 cells [3] = conditions: human
# rodent [4] = conditions: cited from earlier work; for Carcinogenicity Studies: rodent, ref [20]-[41], Table 2
# [5] = system: TA1538, TA100, TA98, TA97, TA1535; conditions: cited from earlier work; for Bacterial reverse mutation assay, With S9 / Bacterial reverse mutation assay, Without S9: ref [18]-[40], Table 2
# [6] = system: human lymphoblastoid TK6 cells, thymidine kinase gene; experiment: TK gene mutation assay (TK6 assay, OECD TG490); conditions: for TK6 assay overall judgment: all treatments; for TK mutation assay, With S9 / TK mutation assay, Without S9: short-term 4 h; for TK mutation assay, With S9: with rat liver S9
# Protocol: as §1, §2, §3, §4
# rodent [7] = conditions: chromosomal Aberration test, micronucleus test, transgenic rodent gene mutation assay; ref [48], [58]–[63]; cited from earlier work
# TK6 cells [8] = experiment: Cytotoxicity in the TK6 assay (CE, RS, RSG, RTG); conditions: for CE0 / RS0 / Adjusted CE0 / Adjusted CE0(%) / CE0 (%) / RS0 (%): Day 0
# [9] = Short treatment, +S9 mix, 24.1 μg/mL
# [10] = Short treatment, +S9 mix, 48.1 μg/mL
# [11] = Short treatment, +S9 mix, 96 μg/mL
# [12] = Short treatment, +S9 mix, 770 μg/mL
# [13] = Short treatment, -S9 mix, 24.10 μg/mL
# [14] = Short treatment, -S9 mix, 48.10 μg/mL
# [15] = Short treatment, -S9 mix, 96.30 μg/mL
# [16] = dose 6.02 μg/mL, 24h treatment, -S9 mix
# [17] = dose 24.10 μg/mL, 24h treatment, -S9 mix
# [18] = dose 24.1 μg/mL, short treatment, +S9 mix
# [19] = dose 48.1 μg/mL, 24h treatment, -S9 mix
# [20] = dose 48.1 μg/mL, short treatment, +S9 mix
# [21] = dose 96 μg/mL, short treatment, +S9 mix
# [22] = dose 96.3 μg/mL, 24h treatment, -S9 mix
# [23] = Long-term treatment without metabolic activation
# [24] = Short-term treatment with metabolic activation
# [25] = Short-term treatment without metabolic activation
smiles,measurement,setting,value
"Cc1cc(N)ccc1N [2,5-Diaminotoluene]",TK6 assay overall judgment,[1],negative
same,"TK mutation assay, Long term",[1],Neg
same,"TK mutation assay, With S9",[1],Neg
same,"TK mutation assay, Without S9",[1],Neg
same,MLA result,"[2]; NTP database, ref [54]",positive
same,MLA result,"[2]; reported by SCCS, ref [46]",negative
same,"MLA (TK gene locus), With S9",[2]; ref [27],Inconclusive^c
same,"MLA (TK gene locus), Without S9",[2]; ref [27],Inconclusive^c
same,CE3 (cell viability on Day 3),TK6 cells [3],92.1%
same,cytotoxicity,TK6 cells [3],About 80%
same,Carcinogenicity Studies,rodent [4],Neg
O=[N+]([O-])c1cc(N(CCO)CCO)ccc1NCCO [HC Blue No.2],The Highest Specific Activity and the Strain,"[5]; TA98 with S9, ref Table 2",153.6 revertants/mg in TA98 with S9
same,"Bacterial reverse mutation assay, With S9",[5],Pos
same,"Bacterial reverse mutation assay, Without S9",[5],Pos
same,"TK mutation assay, Long term",[1],Pos
same,"TK mutation assay, With S9",[1],Neg
same,"TK mutation assay, Without S9",[1],Neg
same,"Trend test, test statistic",[1],2.719
same,MLA (4 h),"[2]; presence of S9, ref [27], [29], [68]",positive
same,MLA (−S9),"[2]; substance with high purity, −S9, ref [27]",positive
same,"MLA (TK gene locus), With S9",[2]; ref [27],Pos
same,"MLA (TK gene locus), Without S9",[2]; ref [27],Pos
same,carcinogenicity classification,rodent [4]; ref [84],non-carcinogenic
same,Carcinogenicity Studies,rodent [4],Neg
O=[N+]([O-])c1cccc2ccccc12 [1-Nitronaphthalene],The Highest Specific Activity and the Strain,"[5]; TA100 with S9, ref Table 2","12,500 revertants/mg"
same,The Highest Specific Activity and the Strain,"[5]; TA100 without S9, ref Table 2","14,700 revertants/mg"
same,specific activity values obtained from Ames test,[5]; ref Table 2,"exceeding 10,000 revertants per milligram"
same,"Bacterial reverse mutation assay, With S9",[5],Pos
same,"Bacterial reverse mutation assay, Without S9",[5],Pos
same,"TK6 assay result (mutant frequency increase, judgment)",[6]; 4h treatment (+S9),significant increase in MF
same,"TK6 assay result (mutant frequency increase, judgment)",[6]; 4h treatment (-S9),significant increase in MF
same,TK6 assay overall judgment,[6],positive
same,"TK mutation assay, With S9",[6],Pos
same,"TK mutation assay, Without S9",[6]; without S9,Pos
same,in vivo genotoxicity tests,rodent [7],negative
same,Carcinogenicity Studies,rodent [4],Neg
Nc1ccc([N+](=O)[O-])cc1N [4-Nitro-o-phenylenediamine],The Highest Specific Activity and the Strain,"[5]; TA100 without S9, ref Table 2","41,400 revertants/mg in TA100 without S9"
same,specific activity values obtained from Ames test,[5]; ref Table 2,"exceeding 10,000 revertants per milligram"
same,"Bacterial reverse mutation assay, With S9",[5],Pos
same,"Bacterial reverse mutation assay, Without S9",[5],Pos
same,CE0,TK6 cells [8]; [9],81.6%
same,RS0,TK6 cells [8]; [9],97.0%
same,CE3,"TK6 cells [8]; Short treatment, +S9 mix, 24.1 μg/mL, Day 3",92.1%
same,Daily cell growth Day 1×2×3,TK6 cells [8]; [10],13.43
same,RSG,TK6 cells [8]; [10],0.703
same,Adjusted CE0,TK6 cells [8]; [10],81.2%
same,CE0,TK6 cells [8]; [10],84.1%
same,RS0,TK6 cells [8]; [10],101.5%
same,CE3,"TK6 cells [8]; Short treatment, +S9 mix, 48.1 μg/mL, Day 3",84.1%
same,Daily cell growth Day 1×2×3,TK6 cells [8]; [11],13.64
same,RSG,TK6 cells [8]; [11],0.714
same,Adjusted CE0,TK6 cells [8]; [11],62.7%
same,CE0,TK6 cells [8]; [11],66.7%
same,RS0,TK6 cells [8]; [11],78.3%
same,CE3,"TK6 cells [8]; Short treatment, +S9 mix, 96 μg/mL, Day 3",72.7%
same,Daily cell growth Day 1×2×3,TK6 cells [8]; [12],1.65
same,RSG,TK6 cells [8]; [12],0.086
same,Adjusted CE0,TK6 cells [8]; [12],29.1%
same,CE0,TK6 cells [8]; [12],42.0%
same,RS0,TK6 cells [8]; [12],36.3%
same,CE3,TK6 cells [8]; [13],1.160
same,RS,TK6 cells [8]; [13],79.4
same,CE0,TK6 cells [8]; [13],74.8%
same,RS0,TK6 cells [8]; [13],79.4%
same,CE3,"TK6 cells [8]; Short treatment, -S9 mix, 24.10 μg/mL, Day 3",116.0%
same,CE3,TK6 cells [8]; [14],0.866
same,Daily cell growth Day 1×2×3,TK6 cells [8]; [14],13.83
same,RS,TK6 cells [8]; [14],65.5
same,RSG,TK6 cells [8]; [14],0.667
same,Adjusted CE0,TK6 cells [8]; [14],56.8%
same,CE0,TK6 cells [8]; [14],61.3%
same,RS0,TK6 cells [8]; [14],65.5%
same,CE3,"TK6 cells [8]; Short treatment, -S9 mix, 48.10 μg/mL, Day 3",86.6%
same,CE3,TK6 cells [8]; [15],0.950
same,Daily cell growth Day 1×2×3,TK6 cells [8]; [15],13.07
same,RS,TK6 cells [8]; [15],64.6
same,RSG,TK6 cells [8]; [15],0.630
same,Adjusted CE0,TK6 cells [8]; [15],56.1%
same,CE0,TK6 cells [8]; [15],63.1%
same,RS0,TK6 cells [8]; [15],64.6%
same,CE3,"TK6 cells [8]; Short treatment, -S9 mix, 96.30 μg/mL, Day 3",95.0%
same,CE3,TK6 cells [8]; [16],0.866
same,Daily cell growth Day 1×2×3,TK6 cells [8]; [16],17.46
same,RSG,TK6 cells [8]; [16],0.993
same,Adjusted CE0(%),TK6 cells [8]; [16],178.3%
same,CE0 (%),TK6 cells [8]; [16],81.6%
same,RS0 (%),TK6 cells [8]; [16],79.6%
same,CE3 (%),"TK6 cells [8]; dose 6.02 μg/mL, 24h treatment, -S9 mix, Day 3",86.6%
same,CE3,TK6 cells [8]; [17],1.012
same,CE0 (%),TK6 cells [8]; [17],95.0%
same,RS0 (%),TK6 cells [8]; [17],73.2%
same,CE3 (%),"TK6 cells [8]; dose 24.10 μg/mL, 24h treatment, -S9 mix, Day 3",101.2%
same,CE3,TK6 cells [8]; [18],0.921
same,RS,TK6 cells [8]; [18],97.0
same,CE3,TK6 cells [8]; [19],0.950
same,Daily cell growth Day 1×2×3,TK6 cells [8]; [19],11.59
same,RSG,TK6 cells [8]; [19],0.659
same,Adjusted CE0(%),TK6 cells [8]; [19],99.3%
same,CE0 (%),TK6 cells [8]; [19],74.8%
same,RS0 (%),TK6 cells [8]; [19],44.3%
same,CE3 (%),"TK6 cells [8]; dose 48.1 μg/mL, 24h treatment, -S9 mix, Day 3",95.0%
same,CE3,TK6 cells [8]; [20],0.841
same,RS,TK6 cells [8]; [20],101.5
same,CE3,TK6 cells [8]; [21],0.727
same,RS,TK6 cells [8]; [21],78.3
same,CE3,TK6 cells [8]; [22],0.866
same,Daily cell growth Day 1×2×3,TK6 cells [8]; [22],9.04
same,RSG,TK6 cells [8]; [22],0.514
same,Adjusted CE0(%),TK6 cells [8]; [22],55.5%
same,CE0 (%),TK6 cells [8]; [22],59.6%
same,RS0 (%),TK6 cells [8]; [22],24.8%
same,CE3 (%),"TK6 cells [8]; dose 96.3 μg/mL, 24h treatment, -S9 mix, Day 3",86.6%
same,RS,"TK6 cells [8]; dose 770 μg/mL, short treatment, +S9 mix",36.3
same,"TK6 assay result (mutant frequency increase, judgment)",[6]; 4h treatment (-S9),increased significantly
same,"TK mutation assay, Long term","[6]; 24 h, without S9",Pos
same,"TK6 assay result (mutant frequency increase, judgment)",[6]; 24h treatment (-S9),increased significantly
same,"Dunnett type test, test statistic",[6]; [23],3.866
same,"Trend test, test statistic",[6]; [23],2.800
same,%SG,[6]; [13],54.1%
same,MF,[6]; [13],14.5
same,%SG,[6]; [14],55.8%
same,MF,[6]; [14],17.4
same,Mut. freq. N-MF,[6]; [14],7.7 ×10-6
same,Mut. freq. S-MF,[6]; [14],9.7 ×10-6
same,Mut. freq. T-MF,[6]; [14],17.4 ×10-6
same,%SG,[6]; [15],62.6%
same,MF,[6]; [15],16.9
same,Mut. freq. N-MF,[6]; [15],6.3 ×10-6
same,Mut. freq. S-MF,[6]; [15],10.6 ×10-6
same,Mut. freq. T-MF,[6]; [15],16.9 ×10-6
same,"Dunnett type test, test statistic",[6]; [24],3.458
same,"Trend test, test statistic",[6]; [24],1.593
same,"Dunnett type test, test statistic",[6]; [25],2.435
same,"Trend test, test statistic",[6]; [25],2.615
same,TK6 assay overall judgment,[6],positive
same,%SG,[6]; [16],39.7%
same,Mut. freq. (×10-6) N-MF,[6]; [16],11.7 ×10-6
same,Mut. freq. (×10-6) S-MF,[6]; [16],7.7 ×10-6
same,Mut. freq. (×10-6) T-MF,[6]; [16],19.4 ×10-6
same,%SG,[6]; [17],59.9%
same,%SG,[6]; [18],62.7%
same,%SG,[6]; [19],78.5%
same,Mut. freq. (×10-6) N-MF,[6]; [19],3.0 ×10-6
same,Mut. freq. (×10-6) S-MF,[6]; [19],11.1 ×10-6
same,Mut. freq. (×10-6) T-MF,[6]; [19],14.2 ×10-6
same,%SG,[6]; [20],65.0%
same,Mut. freq. (×10-6) N-MF,[6]; [20],7.5 ×10-6
same,Mut. freq. (×10-6) S-MF,[6]; [20],14.0 ×10-6
same,Mut. freq. (×10-6) T-MF,[6]; [20],21.6 ×10-6
same,%SG,[6]; [21],70.4%
same,Mut. freq. (×10-6) N-MF,[6]; [21],5.2 ×10-6
same,Mut. freq. (×10-6) S-MF,[6]; [21],12.4 ×10-6
same,Mut. freq. (×10-6) T-MF,[6]; [21],17.6 ×10-6
same,%SG,[6]; [22],76.1%
same,Mut. freq. (×10-6) N-MF,[6]; [22],5.6 ×10-6
same,Mut. freq. (×10-6) S-MF,[6]; [22],17.9 ×10-6
same,Mut. freq. (×10-6) T-MF,[6]; [22],23.5 ×10-6
same,"TK mutation assay, With S9",[6],Neg
same,"TK mutation assay, Without S9",[6]; without S9,Pos
same,"MLA (TK gene locus), With S9",[2]; ref [27],Pos
same,"MLA (TK gene locus), Without S9",[2]; ref [27],Pos
same,Carcinogenicity Studies,rodent [4],Neg
"CC(=O)Nc1ccc(C(=O)CCl)cc1 [4-(Chloroacetyl)-acetanilide, 4-(Chloroacetyl)acetanilide]",The Highest Specific Activity and the Strain,"[5]; TA1538 with S9, ref [18], [19]",600 revertants/mg in TA1538 with S9
same,"Bacterial reverse mutation assay, With S9",[5],Pos
same,"Bacterial reverse mutation assay, Without S9",[5],Neg
same,TK6 assay overall judgment,[1],positive
same,"TK mutation assay, Long term",[1],Pos
same,"TK mutation assay, With S9",[1],Neg
same,"TK mutation assay, Without S9",[1],Pos
same,linear trend test of MF,[1],no statistically significant linear trends
same,in vivo genotoxicity tests,rodent [7],negative
same,Carcinogenicity Studies,rodent [4],Neg
